Data on two molecules can be found in patent US20170306090A1, “METHOD FOR MAKING POLYCARBONATE USING A LIQUID KETONE MIXTURE” (SABIC Global Technologies B.V., priority 2014, published 2017).

The nature of this data set: Solubility of diphenyl carbonate in various ketones (gravimetric method).
[1] abbreviates: Example 1, Temperature 70 °C, molar ratio of ketone to DPC 1:1.
Where [2] appears, read: Example 2, Temperature 50 °C, molar ratio of ketone to DPC 1:1.
[3] abbreviates: Example 3, Temperature 50 °C, molar ratio of ketone to DPC 1.5:1.
Where [4] appears, read: Example 4, Temperature 25 °C, molar ratio of ketone to DPC 1:1.
[5] abbreviates: Example 5, Temperature 25 °C, molar ratio of ketone to DPC 1.5:1.
[6] abbreviates: Example 6, Temperature 25 °C, molar ratio of ketone to DPC 2:1.

Method: The solubility of diphenyl carbonate in various ketones was determined. Solubility was determined based on a gravimetric method.

As to `CCC(=O)CC` [Diethyl ketone, diethyl ketone], the “Solubility of diphenyl carbonate in the ketone” value by setting is: under setting [1], “Yes”; under setting [2], “No”; under setting [3], “Yes”; under setting [4], “No”; under setting [5], “No”; under setting [6], “Yes”.

For `CC(=O)CC(C)C` [MIBK, methyl isobutyl ketone], the “Solubility of diphenyl carbonate in the ketone” value by setting is: under setting [1], “Yes”; under setting [2], “No”; under setting [3], “Yes”; under setting [4], “No”; under setting [5], “No”; under setting [6], “No”.
